Measured values published in patent publication US11415579B2, “Assay for measuring a rate of reaction between a target and a ligand candidate” (Imperial College Innovations Ltd., priority 2016, dated 2022).

Columns and labels:
[1] = biological target: T1, human cyclin-dependent kinase 2 (Cdk2) (Homo sapiens, UniProt P24941); experiment: Kinetic thiol consumption assay with wild type Cdk2 (C177); assay type: binding; set-up: key to Rate enhancement, Cdk2 WT: k(Cdk2) divided by k(model thiol); Rate constant with Cdk2 (k(Cdk2)): unit not given here; conditions: for Rate enhancement, Cdk2 WT: no additional mutations; for Rate constant with Cdk2 WT: Protein: Cdk2, cysteine position WT, in h^-1
T1 construct: poly-histidine; made in house; host or cells: E. coli
Experimental: (§1) A library of 120 acrylamides was screened against a) human cyclin-dependent kinase 2 (Cdk2, which contains one surface exposed cysteine residue—C177), prepared by cloning cDNA into the pRSETA bacterial expression vector to generate a poly-histidine tagged Cdk2 fusion that was purified from E. coli using standard techniques, and b) a model thiol (specific details are given below). The structures of these 120 acrylamides are set out in Table 1, above.
(§2) To wells containing 150 μL thiol (Cdk2 or model thiol) (5 μM) in degassed phosphate buffer (pH 8) was added immobilized TCEP beads (2% v/v).
(§3) After incubation of the fluorescence plates for 1 hour at room temperature, fluorescence measurements (excitation/emission of 380/470 nm) were taken on a PerkinElmer EnVision multilabel plate reader and processed with EnVision Workstation version 1.12.
(§4) Fluorescence measurements were normalized against a DMSO/thiol only control and plotted against time.
(§5) Rate constants were calculated using GraphPad software Prism version 6 by fitting a first order exponential decay to the data. The rate constant for each acrylamide with Cdk2 was divided by the rate constant for that fragment with the model thiol to provide the rate enhancement for each ligand candidate.

Cdk2(S181C) (C177A) = biological target: T2, Cdk2(S181C) (C177A) (Homo sapiens, UniProt P24941, C177A/S181C); experiment: Kinetic thiol consumption assay with Cdk2 mutant S181C; assay type: binding; set-up: key to Rate enhancement, Cdk2 S181C: rate constant with Cdk2 ÷ rate constant with model thiol (fold); conditions: additional mutation C177A; for Rate constant with Cdk2 S181C: Protein: Cdk2, cysteine position S181C, in h^-1
T2 construct: poly-histidine; made in house; host or cells: E. coli
Experimental: as §2, §3, §4, §5
(§6) A further set of set of additional Cdk2 mutants were screened, all containing the C177A mutation and therefore with only one cysteine on the surface: • F80C (without the K278C mutation) • H71C • S276C • N272 • T182C • R122C • S181C
(§7) Mutations were introduced by site-directed mutagenesis and the resulting cDNA was cloned into the pRSETA bacterial expression vector to generate a poly-histidine tagged Cdk2 fusion that was purified from E. coli using standard techniques.

Cdk2(T182C) (C177A) = biological target: T3, Cdk2(T182C) (C177A) (Homo sapiens, UniProt P24941, C177A/T182C); experiment: Kinetic thiol consumption assay with Cdk2 mutant T182C; assay type: binding; set-up: key to Rate enhancement, Cdk2 T182C: rate constant with Cdk2 ÷ rate constant with model thiol (fold); conditions: additional mutation C177A; for Rate constant with Cdk2 T182C: Protein: Cdk2, cysteine position T182C, in h^-1
T3 construct: poly-histidine; made in house; host or cells: E. coli
Experimental: as §2, §3, §4, §5, §6, §7

Cdk2(C177A, F80C) = biological target: T4, Cdk2(C177A, F80C) (Homo sapiens, UniProt P24941, C177A/F80C); experiment: Kinetic thiol consumption assay with Cdk2 mutant F80C, incl. kobs versus concentration (Kd, k2); assay type: binding; set-up: key to Rate enhancement, Cdk2 F80C: Cdk2 rate constant divided by model-thiol rate constant; conditions: additional mutation C177A; for Rate constant with Cdk2 F80C: Protein: Cdk2, cysteine position F80C, in h^-1
T4 construct: poly-histidine; made in house; host or cells: E. coli
Experimental: Therefore the assay can be used to calculate both k2 and Kd by experimentally determining kobs at a suitable range of ligand candidate concentrations. Typically Kd and k2 would then be determined by fitting a hyperbolic curve to a plot of kobs against ligand candidate concentration (FIG. 9).
as §2, §3, §4, §5, §6, §7
Rate constants were calculated as described in the methodology section of Examples 1 and 2.

Cdk2(R122C) (C177A) = biological target: T5, Cdk2(R122C) (C177A) (Homo sapiens, UniProt P24941, C177A/R122C); experiment: Kinetic thiol consumption assay with Cdk2 mutant R122C; assay type: binding; set-up: key to Rate enhancement, Cdk2 R122C: rate constant with Cdk2 ÷ rate constant with model thiol (fold); conditions: additional mutation C177A; for Rate constant with Cdk2 R122C: Protein: Cdk2, cysteine position R122C, in h-1
T5 construct: poly-histidine; made in house; host or cells: E. coli
Experimental: as §2, §3, §4, §5, §6, §7

Cdk2(H71C) (C177A) = biological target: T6, Cdk2(H71C) (C177A) (Homo sapiens, UniProt P24941, C177A/H71C); experiment: Kinetic thiol consumption assay with Cdk2 mutant H71C; assay type: binding; set-up: key to Rate enhancement, Cdk2 H71C: rate constant with Cdk2 ÷ rate constant with model thiol (fold); conditions: additional mutation C177A; for Rate constant with Cdk2 H71C: Protein: Cdk2, cysteine position H71C, in h^-1
T6 construct: poly-histidine; made in house; host or cells: E. coli
Experimental: as §2, §3, §4, §5, §6, §7

Cdk2(S276C) (C177A) = biological target: T7, Cdk2(S276C) (C177A) (Homo sapiens, UniProt P24941, C177A/S276C); experiment: Kinetic thiol consumption assay with Cdk2 mutant S276C; assay type: binding; set-up: key to Rate enhancement, Cdk2 S276C: rate constant with Cdk2 ÷ rate constant with model thiol (fold); conditions: additional mutation C177A; for Rate constant with Cdk2 S276C: Protein: Cdk2, cysteine position S276C, in h^-1
T7 construct: poly-histidine; made in house; host or cells: E. coli
Experimental: as §2, §3, §4, §5, §6, §7

Cdk2(N272C) (C177A) = biological target: T8, Cdk2(N272C) (C177A) (Homo sapiens, UniProt P24941, C177A/N272C); experiment: Kinetic thiol consumption assay with Cdk2 mutant N272C; assay type: binding; set-up: key to Rate enhancement, Cdk2 N272: rate constant with Cdk2 ÷ rate constant with model thiol (fold); conditions: for Rate enhancement, Cdk2 N272: Cdk2 N272, additional mutation C177A; for Rate constant with Cdk2 N272C: Protein: Cdk2, cysteine position N272C, additional mutation C177A, in h^-1
T8 construct: poly-histidine; made in house; host or cells: E. coli
Experimental: as §2, §3, §4, §5, §6, §7

[2] = Kinetic thiol consumption assay with model thiol glutathione; assay type: physicochemical; set-up: Rate constant with glutathione (k(GSH)): unit not given here; conditions: for Rate constant with Glutathione: Protein: Glutathione, cysteine position NA, in h-1
Experimental: as §1, §2, §3, §4, §5
The model thiol in Example 1 is glutathione (GSH). Hits were defined as fragments where kCdk2/kGSH>5.8 (empirically determined as 3 standard deviations over the mean).

[3] = 500 μM ligand, 5 μM thiol, phosphate buffer pH 8

Structure (SMILES)	Rate enhancement, Cdk2 WT [1]	Rate constant with Cdk2 WT [1]	Rate enhancement, Cdk2 S181C (Cdk2(S181C) (C177A))	Rate constant with Cdk2 S181C (Cdk2(S181C) (C177A))	Rate enhancement, Cdk2 T182C (Cdk2(T182C) (C177A))	Rate constant with Cdk2 T182C (Cdk2(T182C) (C177A))	Rate enhancement, Cdk2 F80C (Cdk2(C177A, F80C))	Rate constant with Cdk2 F80C (Cdk2(C177A, F80C))	Rate enhancement, Cdk2 R122C (Cdk2(R122C) (C177A))	Rate constant with Cdk2 R122C (Cdk2(R122C) (C177A))	Rate enhancement, Cdk2 H71C (Cdk2(H71C) (C177A))	Rate constant with Cdk2 H71C (Cdk2(H71C) (C177A))	Rate enhancement, Cdk2 S276C (Cdk2(S276C) (C177A))	Rate constant with Cdk2 S276C (Cdk2(S276C) (C177A))	Rate enhancement, Cdk2 N272 (Cdk2(N272C) (C177A))	Rate constant with Cdk2 N272C (Cdk2(N272C) (C177A))	Rate constant with Glutathione [2]	Rate constant with Cdk2 (k(Cdk2)) [1, 3]	k(Cdk2)/k(GSH) rate enhancement ([1]; model thiol glutathione)	Rate constant with glutathione (k(GSH)) [2, 3]
C=CC(=O)N(c1cccc2ncccc12)C1CCC1 [CA-032/228]	1.405	0.02299	1.043	0.01707	14.8	0.2422	2.232	0.03651	1.534	0.02509	15.36	0.2513	1.851	0.03029	3.007	0.04919	0.01636	–	–	–
C=CC(=O)N1CCn2c(C(=O)NC3CC3)ccc2C1C (centres unmarked) [CA-040/230]	0.6915	0.02965	0.247	0.01059	1.268	0.05436	0.3102	0.0133	0.285	0.01222	0.7334	0.03145	0.7654	0.03282	3.076	0.1319	0.04288	–	–	–
C=CC(=O)N(CC(=O)N1CCCC1)CC1CCCO1 (centres unmarked) [CA-080/239]	0.2317	0.00279	0.1377	0.001658	0.9651	0.01162	0.08364	0.001007	0.173	0.002083	0	–	0.2885	0.003474	0.2756	0.003318	0.01204	–	–	–
C=CC(=O)N(CC(=O)N1CCCC1)CC1CCCO1 (centres unmarked) [CA-080]	–	–	–	–	–	–	–	–	–	–	–	–	–	–	–	–	–	0.00195	0.2764	0.00706
Cn1cc(S(=O)(=O)N2CCOCC2)cc1C(=O)NC(=O)CCl [EN002]	1.276	0.006451	0.2957	0.001495	2.567	0.01298	49.31	0.2493	0.1371	0.0006932	7.5652E−12	3.825E−14	0	–	1.133	0.00573	–	–	–	–
N#Cc1ccncn1 [EN007]	0	–	–	–	0.9515	0.001386	0.9144	0.001332	–	–	0	–	0	–	0	0.001652	–	–	–	–
FC(F)(F)c1cc(Cl)ncc1Br [EN008]	0	–	0.02434	0.001089	0.1321	0.005911	4.64	0.2076	0	–	0	–	1.5439E−13	6.908E−15	0.2037	0.009116	–	–	–	–
CN(C#N)Cc1ccccc1 [EN009]	0	–	0.6302	0.004061	1.07	0.006898	3.246	0.02092	0.132	0.0008504	5.4624E−12	3.52E−14	0.921	0.005935	0	–	–	–	–	–
